One assay has as its system H929 cells. Put plainly: Cell viability assay (Cell TiterGlo). As to conditions: Homo sapiens, NCI-H929, 24 hours at 37° C., Cell TiterGlo luminescence. It counts as cell-based. The protocol: The cell viability assay was performed using H929 cells. Cells were seeded in 96-well plates at 10,000 cells/well and, after overnight incubation, treated with compounds in a dose response of 3-fold dilutions from 10 μM to 0.005 μM ([…], 0.1% final DMSO concentration). After 24 hours at 37° C., cell viability was measured using Cell TiterGlo reagent (Promega) with a luminescence reader.

A further assay addresses CDK9/Cyclin T1 (Homo sapiens (Human), UniProt P50750). The experiment in a line: CDK9 enzyme assay (LANCE ULight TR-FRET kinase assay). Type of assay: biochemical. As to conditions: 1000 μM ATP, 100 nM ULight MBP, kinase reaction 1 hour. The method, boiled down:
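Human CDK9/Cyclin T1 phosphorylating 100 nM ULight-MBP with 1000 μM ATP in HEPES/MgCl2 buffer, 1 h reaction. Stopped with 20 mM EDTA plus 0.5 nM Eu anti-phospho-MBP antibody, incubated 1 h, read by TR-FRET (ex 320 nm, em 615/665 nm).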
(In TR-FRET formats the signal depends on donor and acceptor labels being close together.)

This is an account of results in US9328112B2, “Tetracyclic CDK9 kinase inhibitors” (AbbVie Inc., priority 2014, dated 2016).

Sequence of CDK9/Cyclin T1 (P50750 whole entry): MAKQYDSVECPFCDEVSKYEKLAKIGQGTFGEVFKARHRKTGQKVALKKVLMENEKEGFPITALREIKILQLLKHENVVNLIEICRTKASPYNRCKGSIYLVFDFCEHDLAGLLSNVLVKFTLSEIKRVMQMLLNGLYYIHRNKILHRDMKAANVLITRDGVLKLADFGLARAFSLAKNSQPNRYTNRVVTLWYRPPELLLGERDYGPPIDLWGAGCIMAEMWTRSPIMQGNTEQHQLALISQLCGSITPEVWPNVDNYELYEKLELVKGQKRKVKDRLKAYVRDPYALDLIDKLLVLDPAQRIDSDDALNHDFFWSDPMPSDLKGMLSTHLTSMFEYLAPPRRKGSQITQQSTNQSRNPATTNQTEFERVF
Sequence of CDK9/Cyclin T1 (O60563 whole entry partner): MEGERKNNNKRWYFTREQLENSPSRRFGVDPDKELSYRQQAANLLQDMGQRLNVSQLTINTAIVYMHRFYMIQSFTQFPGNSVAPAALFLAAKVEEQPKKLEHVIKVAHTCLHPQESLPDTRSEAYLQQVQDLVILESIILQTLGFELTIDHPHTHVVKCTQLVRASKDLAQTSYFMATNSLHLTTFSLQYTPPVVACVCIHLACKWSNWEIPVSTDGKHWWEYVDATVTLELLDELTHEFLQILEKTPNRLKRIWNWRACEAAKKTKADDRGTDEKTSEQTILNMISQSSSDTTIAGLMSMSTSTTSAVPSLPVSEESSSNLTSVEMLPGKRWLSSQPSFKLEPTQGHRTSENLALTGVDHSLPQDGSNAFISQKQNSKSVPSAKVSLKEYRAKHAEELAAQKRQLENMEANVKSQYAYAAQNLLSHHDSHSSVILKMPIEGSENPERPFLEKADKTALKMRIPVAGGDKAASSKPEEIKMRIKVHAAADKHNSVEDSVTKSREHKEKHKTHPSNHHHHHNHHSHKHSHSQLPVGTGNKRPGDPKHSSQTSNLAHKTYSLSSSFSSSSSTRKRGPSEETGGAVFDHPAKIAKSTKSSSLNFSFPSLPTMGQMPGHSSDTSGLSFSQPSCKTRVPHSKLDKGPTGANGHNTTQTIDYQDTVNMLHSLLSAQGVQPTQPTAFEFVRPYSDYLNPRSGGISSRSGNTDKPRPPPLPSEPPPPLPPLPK

What is called IC50 is the concentration at which inhibition is half-maximal. A high value points to lower potency. As for `CN1Cc2c(C3=CCN[C@@H](CO)C3)[nH]c3nccc(c23)-c2cc(F)ccc21` [Example 156, [(2R)-4-(10-fluoro-7-methyl-6,7-dihydro-4H-3,4,7-triazadibenzo[cd,f]azulen-5-yl)-1,2,3,6-tetrahydropyridin-2-yl]methanol], the half-maximal inhibitory concentration (IC50) stood at 22 nM in the assay with H929 cells and 30 nM at CDK9/Cyclin T1.

Take `CN(CCO)C(=O)CN1CC=C(c2[nH]c3nccc4c3c2CN(C)c2cc(F)c(F)cc2-4)CC1` [Example 157, 2-[4-(9,10-difluoro-7-methyl-6,7-dihydro-4H-3,4,7-triazadibenzo[cd,f]azulen-5-yl)-3,6-dihydropyridin-1(2H)-yl]-N-(2-hydroxyethyl)-N-methylacetamide]: the IC50 worked out at 10 nM in the assay with H929 cells and 46 nM at CDK9/Cyclin T1.

On to `CN1Cc2c(C3=CCNCC3)[nH]c3nccc(c23)-c2ccccc21` [Example 158, 7-methyl-5-(1,2,3,6-tetrahydropyridin-4-yl)-6,7-dihydro-4H-3,4,7-triazadibenzo[cd,f]azulene], for which the IC50 in the assay with H929 cells came to 20 nM; at CDK9/Cyclin T1, 96 nM.

Regarding `CN1Cc2c(C3=CCNCC3)[nH]c3ncc(F)c(c23)-c2ccccc21` [Example 159, 1-fluoro-7-methyl-5-(1,2,3,6-tetrahydropyridin-4-yl)-6,7-dihydro-4H-3,4,7-triazadibenzo[cd,f]azulene], the IC50 with H929 cells came out at 8 nM; against CDK9/Cyclin T1, 34 nM.

With `CN1Cc2c(C3=CCN(S(C)(=O)=O)CC3)[nH]c3nccc(c23)-c2ccccc21` [Example 160, 7-methyl-5-[1-(methylsulfonyl)-1,2,3,6-tetrahydropyridin-4-yl]-6,7-dihydro-4H-3,4,7-triazadibenzo[cd,f]azulene], the figures for the IC50 in the assay on H929 cells and against CDK9/Cyclin T1 were 94 nM and 85 nM, respectively.

For `CN1Cc2c(C3=CCN(S(C)(=O)=O)CC3)[nH]c3ncc(F)c(c23)-c2ccccc21` [Example 161, 1-fluoro-7-methyl-5-[1-(methylsulfonyl)-1,2,3,6-tetrahydropyridin-4-yl]-6,7-dihydro-4H-3,4,7-triazadibenzo[cd,f]azulene], the IC50 in the assay with H929 cells turned out to be 65 nM; against CDK9/Cyclin T1, 40 nM.

For `CN(C)C(=O)CN1CC=C(c2[nH]c3nccc4c3c2CN(C)c2ccccc2-4)CC1` [Example 162, N,N-dimethyl-2-[4-(7-methyl-6,7-dihydro-4H-3,4,7-triazadibenzo[cd,f]azulen-5-yl)-3,6-dihydropyridin-1(2H)-yl]acetamide], the IC50 in the assay on H929 cells worked out at 21 nM; on CDK9/Cyclin T1, 115 nM.

As to `CN(C)C(=O)CN1CC=C(c2[nH]c3ncc(F)c4c3c2CN(C)c2ccccc2-4)CC1` [Example 163, 2-[4-(1-fluoro-7-methyl-6,7-dihydro-4H-3,4,7-triazadibenzo[cd,f]azulen-5-yl)-3,6-dihydropyridin-1(2H)-yl]-N,N-dimethylacetamide], the half-maximal inhibitory concentration (IC50) was 7 nM with H929 cells and 56 nM against CDK9/Cyclin T1.

For the compound `OCC(O)CN1CC=C(c2[nH]c3nccc4c3c2COc2ccc(F)cc2-4)CC1` (stereo not drawn) [Example 164, 3-[4-(10-fluoro-4,6-dihydro-7-oxa-3,4-diazadibenzo[cd,f]azulen-5-yl)-3,6-dihydropyridin-1(2H)-yl]propane-1,2-diol], the concentration for half-maximal inhibition (IC50) in the assay on H929 cells worked out at 270 nM; at CDK9/Cyclin T1 it was 130 nM.

On to `O=C(O)CC1CCC(N2CC=C(c3[nH]c4nccc5c4c3COc3ccc(F)cc3-5)CC2)CC1` (stereo not drawn) [Example 165, {4-[4-(10-fluoro-4,6-dihydro-7-oxa-3,4-diazadibenzo[cd,f]azulen-5-yl)-3,6-dihydropyridin-1(2H)-yl]cyclohexyl}acetic acid], for which the IC50 with H929 cells was found to be 970 nM; against CDK9/Cyclin T1 it was 390 nM.

Turning to `CN1Cc2c(C3=CCN([C@H]4CC[C@H](C(=O)O)CC4)CC3)[nH]c3ncc(F)c(c23)-c2cc(F)ccc21` [Example 166, trans-4-[4-(1,10-difluoro-7-methyl-6,7-dihydro-4H-3,4,7-triazadibenzo[cd,f]azulen-5-yl)-3,6-dihydropyridin-1(2H)-yl]cyclohexanecarboxylic acid], the half-maximal inhibitory concentration (IC50) in the assay on H929 cells came to 8 nM; against CDK9/Cyclin T1, 75 nM.

As to `CN1Cc2c(C3=CCN([C@H]4CC[C@H](CC(=O)O)CC4)CC3)[nH]c3ncc(F)c(c23)-c2cc(F)ccc21` [Example 167, {trans-4-[4-(1,10-difluoro-7-methyl-6,7-dihydro-4H-3,4,7-triazadibenzo[cd,f]azulen-5-yl)-3,6-dihydropyridin-1(2H)-yl]cyclohexyl}acetic acid], the IC50 in the assay with H929 cells came to 10 nM; against CDK9/Cyclin T1 it was 67 nM.

Take `CC[C@H]1c2c(C3=CCN(CC(=O)N(C)C)CC3)[nH]c3nccc(c23)-c2cc(F)ccc2N1C` [Example 168, 2-{4-[(6S)-6-ethyl-10-fluoro-7-methyl-6,7-dihydro-4H-3,4,7-triazadibenzo[cd,f]azulen-5-yl]-3,6-dihydropyridin-1(2H)-yl}-N,N-dimethylacetamide]: the IC50 in the assay with H929 cells stood at 8 nM; at CDK9/Cyclin T1, 60 nM.

In the case of `CN1Cc2c(C3=CCN(C4CCC(=CC#N)CC4)CC3)[nH]c3nccc(c23)-c2cc(F)ccc21` (stereo not drawn) [Example 173, {4-[4-(10-fluoro-7-methyl-6,7-dihydro-4H-3,4,7-triazadibenzo[cd,f]azulen-5-yl)-3,6-dihydropyridin-1(2H)-yl]cyclohexylidene}acetonitrile], the figures for the IC50 in the assay with H929 cells and on CDK9/Cyclin T1 were 68 nM and 45 nM, respectively.

Take `COC(=O)C(C)=C1CCC(N2CC=C(c3[nH]c4nccc5c4c3CN(C)c3ccc(F)cc3-5)CC2)CC1` (stereo not drawn) [Example 174, methyl 2-{4-[4-(10-fluoro-7-methyl-6,7-dihydro-4H-3,4,7-triazadibenzo[cd,f]azulen-5-yl)-3,6-dihydropyridin-1(2H)-yl]cyclohexylidene}propanoate]: the IC50 is 120 nM with H929 cells and 57 nM on CDK9/Cyclin T1.

Consider `CN1Cc2c(C3=CCN(C4CCC(=CC(=O)OC(C)(C)C)CC4)CC3)[nH]c3nccc(c23)-c2cc(F)ccc21` (stereo not drawn) [Example 175, tert-butyl{4-[4-(10-fluoro-7-methyl-6,7-dihydro-4H-3,4,7-triazadibenzo[cd,f]azulen-5-yl)-3,6-dihydropyridin-1(2H)-yl]cyclohexylidene}acetate], for which the IC50 in the assay on H929 cells turned out to be 490 nM; against CDK9/Cyclin T1 it was 120 nM.

As for `CN1Cc2c(C3=CCN(C4CCC(=CC(=O)O)CC4)CC3)[nH]c3nccc(c23)-c2cc(F)ccc21` (stereo not drawn) [Example 177, {4-[4-(10-fluoro-7-methyl-6,7-dihydro-4H-3,4,7-triazadibenzo[cd,f]azulen-5-yl)-3,6-dihydropyridin-1(2H)-yl]cyclohexylidene}acetic acid], the IC50 came out at 120 nM in the assay on H929 cells and 58 nM against CDK9/Cyclin T1.

Consider `CN1Cc2c(C3=CCN(CCS(=O)(=O)N(C)C)CC3)[nH]c3nccc(c23)-c2cc(F)ccc21` [Example 178, 2-[4-(10-fluoro-7-methyl-6,7-dihydro-4H-3,4,7-triazadibenzo[cd,f]azulen-5-yl)-3,6-dihydropyridin-1(2H)-yl]-N,N-dimethylethanesulfonamide], for which the half-maximal inhibitory concentration (IC50) is 40 nM with H929 cells and 25 nM against CDK9/Cyclin T1.

`CN1Cc2c(C3=CCN(CCS(N)(=O)=O)CC3)[nH]c3nccc(c23)-c2cc(F)ccc21` [Example 179, 2-[4-(10-fluoro-7-methyl-6,7-dihydro-4H-3,4,7-triazadibenzo[cd,f]azulen-5-yl)-3,6-dihydropyridin-1(2H)-yl]ethanesulfonamide]: the concentration for half-maximal inhibition (IC50) is 64 nM in the assay with H929 cells and 24 nM against CDK9/Cyclin T1.

On to `CN1Cc2c(C3=CCN([C@H]4CC[C@H](CC(=O)O)CC4)CC3)[nH]c3ncc(F)c(c23)-c2ccccc21` [Example 180, {trans-4-[4-(1-fluoro-7-methyl-6,7-dihydro-4H-3,4,7-triazadibenzo[cd,f]azulen-5-yl)-3,6-dihydropyridin-1(2H)-yl]cyclohexyl}acetic acid], for which the IC50 came out at 11 nM with H929 cells and 73 nM against CDK9/Cyclin T1.

For `CN1Cc2c(C3=CCN([C@H]4CC[C@H](C(=O)O)CC4)CC3)[nH]c3ncc(F)c(c23)-c2ccccc21` [Example 181, trans-4-[4-(1-fluoro-7-methyl-6,7-dihydro-4H-3,4,7-triazadibenzo[cd,f]azulen-5-yl)-3,6-dihydropyridin-1(2H)-yl]cyclohexanecarboxylic acid], the half-inhibitory concentration (IC50) in the assay with H929 cells stood at 12 nM; on CDK9/Cyclin T1 it was 63 nM.

For `CN1Cc2c(C3=CCN([C@H]4CC[C@@H](CC(=O)O)CC4)CC3)[nH]c3ncc(F)c(c23)-c2ccccc21` [Example 182, {cis-4-[4-(1-fluoro-7-methyl-6,7-dihydro-4H-3,4,7-triazadibenzo[cd,f]azulen-5-yl)-3,6-dihydropyridin-1(2H)-yl]cyclohexyl}acetic acid], the IC50 in the assay with H929 cells was found to be 10 nM; on CDK9/Cyclin T1, 71 nM.

For `CN1Cc2c(C3=CCN([C@H]4CC[C@@H](C(=O)O)CC4)CC3)[nH]c3ncc(F)c(c23)-c2ccccc21` [Example 183, cis-4-[4-(1-fluoro-7-methyl-6,7-dihydro-4H-3,4,7-triazadibenzo[cd,f]azulen-5-yl)-3,6-dihydropyridin-1(2H)-yl]cyclohexanecarboxylic acid], the values for the IC50 in the assay on H929 cells and on CDK9/Cyclin T1 were 14 nM and 80 nM, respectively.

Regarding `CN1Cc2c(C3=CCCN(C4CCC(=CC(=O)O)CC4)CC3)[nH]c3nccc(c23)-c2cc(F)ccc21` (stereo not drawn) [Example 184, {4-[4-(10-fluoro-7-methyl-6,7-dihydro-4H-3,4,7-triazadibenzo[cd,f]azulen-5-yl)-2,3,6,7-tetrahydro-1H-azepin-1-yl]cyclohexylidene}acetic acid], the IC50 in the assay on H929 cells is 190 nM; on CDK9/Cyclin T1 it was 130 nM.
